Where no end group is shown, it is not given here.

The results in this text go back to patent US20230109157A1, “TOPICALLY APPLICABLE PREPARATION COMPRISING PEPTIDES AS ALLERGEN PROTECTION FOR THE SKIN” (BEIERSDORF AG, priority 2020, published 2023).

The nature of series [1]: Direct peptide reactivity assay (DPRA) with urushiols, Ellman's reagent, 24 h. To be noted: FIG. 9; urushiols C15:1, C15:2, C15:3 (structures I-V); 24 h reaction, n=3. On the procedure:
FIGS. 7A-E, 8, and 9 show investigations into the reactivity of peptides of the invention with allergens over time (x-axis) and after 24 h. The absorbance is plotted on the y-axis. The peptide-allergen reactions were realized according to a direct peptide reactivity assay. The test is referred to as the in-chemico method, that is to say no cells are used, but a chemical reaction is carried out.
The native, still-unbound peptide is detected by reaction with Ellman's reagent and corresponding absorbance measurement. The direct peptide reactivity assay (DPRA) is a chemical method for predicting epidermal protein binding. DPRA uses for example HPLC to measure the depletion of peptides in solution after exposure to test chemicals.
In the DPRA method, the absorbance at 415 nm is determined as the measured variable.
The allergen concentration is in the investigations carried out a standard 5 mM and thus 10 times the concentration of the peptide used (0.5 mM).
The reaction courses shown in FIGS. 8 and 9 were determined colorimetrically through the reaction of the peptide with Ellmann's reagent in a photometer. In this reaction, DTNB ((5,5′-dithiobis-2-nitrobenzoic acid, Ellmann's reagent) is cleaved and attached to the SH residue of the amino acid cysteine of the peptides of the invention (Ac-RFAACAA, RFAACAA). […]
A general note: In Ellman's method for cholinesterases, released thiocholine reacts with DTNB.

Another series deals with interleukin 6 (IL6). The series is described as follows: Interleukin 6 in supernatants of Phenion FTS full skin models (Bio-Plex multiplex immunoassay). It counts as cell-based, Human. The settings on record: FIG. 4, left bar; peptide alone. As to the method: (§1) The investigations were carried out using Phenion FTS full skin models (Phenion, Henkel). These were maintained for 3 days at 37° C. and 7% CO2 in deep-well plates having a […] pore size in the cell culture inserts. The skin models were maintained in 1.5 ml of air-liquid interface medium without phenol red. The medium was changed daily. The test substances were dissolved in ethanol and incubated at room temperature for 24 h. After culturing for 24 h, 25 μl of the substance solution was dripped onto a sterile filter paper that had previously been laid on the skin model. The barrier peptide (0.5 mM AcRFAACAA) had previously been applied to the model as a solution in 100 mM phosphate buffer (pH 7.5). Alternatively, the barrier peptide was applied in a formulation having a content of 0.25% by weight.
(§2) After culturing for a further 24 h, the models were harvested and one half embedded in OCT mounting medium (VWR Q-Path Chemicals), the other half snap-frozen in liquid nitrogen. The supernatant of each model was collected and stored at −20° C.
The supernatants were then analyzed (FIGS. 2, 3 and 4).
The supernatants of the Phenion FTS models were analyzed using the Bio-Plex Pro Human Cytokine Screening Panel (Bio-Rad) according to the manufacturer's protocol. […] The cytokine concentrations are calculated on the basis of the standard curves from the Bioplex system. […]

The subject of a further series is Phenion skin models. The series is described as follows: H&E staining of cryosections of Phenion skin models. To be noted: FIG. 5B; 0.5 mM peptide (control). It is filed as cell-based. On the procedure:
as §1, §2
In further investigations, frozen sections were thawed and incubated for 10 min in 3.7% paraformaldehyde at RT. After three PBS wash steps and one minute in distilled water, they are stained for 3 min in hematoxylin solution. […]

With RFAACAA [Arg Phe Ala Ala Cys Ala Ala], in series [1], the “reactivity and thus protective activity against urushiols” value is listed as “very high reactivity”.

“Ac-RFAACAA [Ac-RFAACAA, acetylarginine-phenylalanine-alanine-alanine-cysteine-alanine-alanine]”: the “interleukin 6 (IL6) concentration, peptide on its own” value with interleukin 6 (IL6) is “unchanged”. The “skin model histology (H&E), peptide alone” value in the series on Phenion skin models is listed as “unchanged”.
